Earlier results on one molecule are cited in US20050137198A1, “Stable hydrazalazine pharmaceutical compositions” (priority 2003, published 2005).

This data set concerns vascular smooth muscle.

Structures are written as SMILES. Like-named read-outs stand apart in the source and are kept apart here.

As for `NNc1nncc2ccccc12` [Hydralazine, 1-hydrazinophthalazine], for the setting “given intravenously”, the onset of action is 10 to 20 min. Where the note is “in vivo”, the duration of action was 3 to 4 h, the onset of action is 10 to 30 min and the “time of maximum hypotensive effect” value is 10 to 80 min.
